Experimental data from patent US11248003B2, “Pyrimidine derivative having effect of inhibiting cancer cell growth and pharmaceutical composition containing same” (ONCOBIX CO., LTD., priority 2017, dated 2022).
Read-outs that look alike come from different tables or passages of the source.

Columns and labels:
MET kinase = MET kinase (Homo sapiens (Human), UniProt P08581); assay: Kinase inhibitory activity, MET; type: biochemical; settings: 33P-ATP filter assay, about 40 minutes at room temperature
Method: The kinase inhibitory activity was measured by the following method:
The compound to be evaluated (DMSO solution) and Mg/ATP were added to proceed the reaction.
After about 40 minutes at room temperature, the reaction was stopped by the addition of 10 μL of 0.5% phosphoric acid.
10 μL of 0.5% reaction solution was spotted onto a P30 filtermat.
Washed 4 times for about 4 minutes in 0.425% phosphoric acid. Washed once in methanol, and then dried and analyzed by scintillation counting to measure IC50 value.

[1] = system: Ba/F3 cell line expressing EGFR DEL19/T790M/C797S; assay: Inhibitory effect on cancer cell growth (MTT), Ba/F3 DEL19/T790M/C797S; type: cell-based, Murine; settings: for IC50: read-out: DEL19/T790M/C797S (IC50); for inhibitory activity on C797S mutant EGFR-expressed cancer cell lines, comparison in words: both Ba/F3 triple mutant lines of Table 2
Method: (§1) The inhibitory effect on the growth of a C797S-expressed triple mutant Ba/F3 cancer cell line was measured for the compounds obtained in the examples above. The kinase assay and anticancer efficacy activity using a Ba/F3 stable cell line were measured by the following method:
(§2) 1. […] All constructs were retroviral vectors and finally completed viral particles for infection.
(§3) 2. Construction of Ba/F3 stable cell lines: Murine lymphoid cells undergo IL-3 dependent growth. […] Briefly, each construct was infected into Ba/F3 cell lines, and after 48 hours, IL-3 was removed with media exchange and cells were cultured. However, puromycin selection was performed for wild type EGFR.
(§4) 3. Identification of Ba/F3 stable cell lines: All stable cell lines were subjected to western blotting to confirm the expression of each construct and EGFR activity (EGFR wild type and L858R were omitted).
(§5) 5. Anticancer effect verification by MTT assay: 2×10^3 cells were seeded in a 96-well plate. After 24 hours, each of the drugs was treated in a dose-dependent manner, incubated for 72 hours, reacted with 15 μL of MTT reagent for 4 hours, and then 100 μL of 10% SDS was added thereto and incubated for 24 hours. […] MTT results were analyzed by measuring IC50 values through prism software.

[2] = system: Ba/F3 cell line expressing EGFR L858R/T790M/C797S; assay: Inhibitory effect on cancer cell growth (MTT), Ba/F3 L858R/T790M/C797S; type: cell-based, Murine; settings: read-out: L858R/T790M/C797S (IC50)
Method: as §1, §2, §3, §4, §5

[3] = Mus musculus, BaF3, Ba/F3 stable cell line, MTT, 72 hours, GI50
[4] = Ba/F3 stable cell line, MTT, 72 hours, GI50

Chain of MET kinase (P08581 25-1390): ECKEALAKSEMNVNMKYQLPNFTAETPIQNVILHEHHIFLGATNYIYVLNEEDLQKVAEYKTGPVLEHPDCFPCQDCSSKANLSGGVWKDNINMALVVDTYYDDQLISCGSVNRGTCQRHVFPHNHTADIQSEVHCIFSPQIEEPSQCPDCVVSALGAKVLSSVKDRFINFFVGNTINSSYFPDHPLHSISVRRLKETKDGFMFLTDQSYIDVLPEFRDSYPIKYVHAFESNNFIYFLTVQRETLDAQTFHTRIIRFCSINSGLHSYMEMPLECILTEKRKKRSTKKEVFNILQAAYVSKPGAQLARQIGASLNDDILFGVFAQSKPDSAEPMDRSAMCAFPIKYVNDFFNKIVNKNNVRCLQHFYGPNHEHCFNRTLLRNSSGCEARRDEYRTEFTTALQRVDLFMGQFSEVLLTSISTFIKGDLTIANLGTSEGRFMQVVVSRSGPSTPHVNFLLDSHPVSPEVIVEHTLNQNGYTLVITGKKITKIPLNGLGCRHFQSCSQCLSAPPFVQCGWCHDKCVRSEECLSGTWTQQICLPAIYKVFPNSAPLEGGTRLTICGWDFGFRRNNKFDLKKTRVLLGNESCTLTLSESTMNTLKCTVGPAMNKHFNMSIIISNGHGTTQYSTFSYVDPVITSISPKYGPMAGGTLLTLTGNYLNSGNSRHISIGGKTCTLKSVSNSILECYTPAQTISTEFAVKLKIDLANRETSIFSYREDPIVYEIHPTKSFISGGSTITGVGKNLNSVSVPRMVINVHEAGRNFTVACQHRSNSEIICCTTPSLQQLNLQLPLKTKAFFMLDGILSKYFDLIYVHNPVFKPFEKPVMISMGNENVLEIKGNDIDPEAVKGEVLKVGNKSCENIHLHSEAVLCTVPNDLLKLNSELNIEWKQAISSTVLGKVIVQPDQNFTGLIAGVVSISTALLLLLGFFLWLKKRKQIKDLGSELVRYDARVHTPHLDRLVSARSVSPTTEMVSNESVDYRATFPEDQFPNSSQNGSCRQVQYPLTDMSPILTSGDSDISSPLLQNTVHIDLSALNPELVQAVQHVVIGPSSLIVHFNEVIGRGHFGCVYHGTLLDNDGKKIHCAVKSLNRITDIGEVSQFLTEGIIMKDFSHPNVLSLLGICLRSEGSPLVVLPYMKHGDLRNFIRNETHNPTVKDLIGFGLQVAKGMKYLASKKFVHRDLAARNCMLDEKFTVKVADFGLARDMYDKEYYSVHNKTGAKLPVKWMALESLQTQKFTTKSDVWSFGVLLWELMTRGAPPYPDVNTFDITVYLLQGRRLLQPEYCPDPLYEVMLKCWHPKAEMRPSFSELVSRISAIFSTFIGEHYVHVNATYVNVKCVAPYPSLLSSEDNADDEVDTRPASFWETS

| Structure (SMILES) | IC50 (MET kinase) [nM] | IC50 ([1]; Mus musculus, BaF3, 72 h) [nM] | IC50 ([2]; Mus musculus, BaF3, 72 h) [nM] | IC50 [1, 3] [nM] | IC50 [2, 3] [nM] | IC50 [1, 4] [nM] | IC50 [2, 4] [nM] | inhibitory activity on C797S mutant EGFR-expressed cancer cell lines, comparison in words [1] |
| --- | --- | --- | --- | --- | --- | --- | --- | --- |
| COc1cc(N2CCC(N3CCN(C)CC3)CC2)ccc1Nc1ncc(Cl)c(Nc2ccccc2P(C)(C)=O)n1 [Brigatinib] | 70 | 560 | 860 |  |  |  |  | very less active |
| COc1cc(N2CCC(N3CCN(C)CC3)CC2)ccc1Nc1ncc(Cl)c(Nc2ccccc2N(C)S(C)(=O)=O)n1 [Example 1, N-(2-((5-chloro-2-((2-methoxy-4-(4-(4-methylpiperazin-1-yl)piperidin-1-yl)phenyl)amino)pyrimidin-4-yl)amino)phenyl)-N-methylmethanesulfonamide] | 1 |  |  | 210 | 160 |  |  |  |
| COc1cc(N2CCC(N3CCN(C)CC3)CC2)ccc1Nc1ncc(Cl)c(Nc2cc(F)ccc2N(C)S(C)(=O)=O)n1 [Example 2, N-(2-((5-chloro-2-((2-methoxy-4-(4-(4-methylpiperazin-1-yl)piperidin-1-yl)phenyl)amino)pyrimidin-4-yl)amino)-4-fluorophenyl)-N-methylmethanesulfonamide] |  |  |  | 222 | 533 |  |  |  |

Continued, in another order:

| IC50 (MET kinase) [nM] | IC50 ([1]; Mus musculus, BaF3, 72 h) [nM] | IC50 ([2]; Mus musculus, BaF3, 72 h) [nM] | IC50 [1, 3] [nM] | IC50 [2, 3] [nM] | IC50 [1, 4] [nM] | IC50 [2, 4] [nM] | Structure (SMILES) | inhibitory activity on C797S mutant EGFR-expressed cancer cell lines, comparison in words [1] |
| --- | --- | --- | --- | --- | --- | --- | --- | --- |
|  |  |  | 323 | 531 |  |  | COc1cc(N2CCC(N(C)C)CC2)ccc1Nc1ncc(Cl)c(Nc2ccccc2N(C)S(C)(=O)=O)n1 [Example 3, N-(2-((5-chloro-2-((4-(4-(dimethylamino)piperidin-1-yl)-2-methoxyphenyl)amino)pyrimidin-4-yl)amino)phenyl)-N-methylmethanesulfonamide] |  |
| 120 |  |  |  |  | 5000 | 4000 | COc1cc(C2CCNCC2)ccc1Nc1ncc(Cl)c(Nc2ccccc2NS(C)(=O)=O)n1 [TRE-069] | very less active |
